Source: BigSolDB 2.1

CC#C[C@]1(O)CC[C@H]2[C@@H]3CCC4=CC(=O)CCC4=C3[C@@H](c3ccc(N(C)C)cc3)C[C@@]21C
solubility (mole fraction)
Conditions | 273.15 K | 278.15 K | 283.15 K | 288.15 K | 293.15 K | 298.15 K | 303.15 K | 308.15 K | 313.15 K | 318.15 K
in THF | 5.16e-05 | 6e-05 | 6.95e-05 | 8.05e-05 | 9.3e-05 | 0.000107 | 0.000123 | 0.000142 | 0.000163 | 0.000188
in acetone | 0.000149 | 0.000184 | 0.000228 | 0.000281 | 0.000345 | 0.000422 | 0.000516 | 0.000628 | 0.000762 | 0.000922
in ethanol | 0.000122 | 0.000146 | 0.000174 | 0.000206 | 0.000244 | 0.000289 | 0.000341 | 0.000401 | 0.000472 | 0.000552
in ethyl acetate | 0.000103 | 0.000125 | 0.000152 | 0.000184 | 0.000223 | 0.00027 | 0.000325 | 0.000392 | 0.000471 | 0.000565
in isopropanol | 7.13e-05 | 0.000109 | 0.000164 | 0.000244 | 0.000358 | 0.000518 | 0.00074 | 0.00105 | 0.00146 | 0.00202
in methanol | 0.000445 | 0.00058 | 0.000756 | 0.000982 | 0.00128 | 0.00164 | 0.0021 | 0.00266 | 0.00333 | 0.00414
in n-butanol | 0.000172 | 0.000213 | 0.000264 | 0.000332 | 0.000412 | 0.000502 | 0.000612 | 0.000733 | 0.000875 | 0.00103
in n-propanol | 0.000138 | 0.000163 | 0.000192 | 0.000226 | 0.000266 | 0.00031 | 0.000362 | 0.000428 | 0.000499 | 0.000582
